How the values were obtained:
[1] = Appearance of solutions after cooling to room temperature; type: physicochemical; settings: cooled from 85° C. to room temperature
Experimental: A solution of BC is prepared by adding 20 grams BTMC-85 (Mason chemical company, 80% active by weight) to 330 ml of water and heating to 85° C. 50 grams of DPLC (SL-5, Mason chemical company, 35% active by weight) is added. The solution is clear and a slight yellow in color. A solution of BC is prepared in water as above but without addition of DPLC. Both solutions are cooled to room temperature.

wet hair of individuals = assay: Spraying onto the wet hair of individuals; type: in vivo; settings: sprayed onto wet hair, left on while hair dried, combed and brushed while damp
Experimental: A suspension of BC/DPLC was prepared as described in Example 1. It was sprayed onto the wet hair of individuals and left on while the hair dried. The hair was combed and brushed while still damp.
A solution of BC, equal in the concentration BC as in Example 1, was also sprayed on the wet hair of an individual, as described above.

[2] = Spraying of formulations onto surface of a pan of water (dilution stability of aggregates); type: physicochemical; settings: mixed vigorously, sprayed onto surface of a pan of water at room temperature (20° C.)
Experimental: The two formulations are each mixed vigorously to disperse their contents and then sprayed onto the surface of a pan of water at room temperature (20° C.).

[3] = Spraying onto a clear glass surface held perpendicular to the ground (retention); type: physicochemical; settings: sprayed on clear glass held perpendicular to the ground; same BC concentration
Description: A BC/DPLC suspension prepared as in Example 1 and a BC solution (at the same concentration) are sprayed on to a clear glass surface held perpendicular to the ground. The liquids run freely downward. […] This teaches that spraying of the BC/DPLC formulation achieves the desired benefit, as expected in its use on hair and skin.

appearance of solution after cooling [1]: forms a uniform milky suspension
appearance of glass surface after liquid runs off [3]: clear
Compound: CCCCCCCCCCCCCCCCCCCCCC[N+](C)(C)C [BC, Behentrimonium chloride (N,N,N-trimethyldocosan-1-aminium chloride]
feel of hair (wet hair of individuals): oily, and lacked the feel and management properties of the BC/DPLC formulation
behaviour on dilution in water [2]: gradually diffuses down into the water layer resulting in a nearly clear, transparent solution

— patent US9931287B2, “Simple micro-particulate suspension of behentrimonium chloride with favorable distributive and adsorptive properties” (Formula XO, Inc., priority 2013, dated 2018)
